Holding throughout (format): biochemical
The target in one test is T1, caspase 7 (Homo sapiens, UniProt P55210).
T1 construct: purchased Biomol International, UK
T1 sequence (P55210 24-198 limits assumed): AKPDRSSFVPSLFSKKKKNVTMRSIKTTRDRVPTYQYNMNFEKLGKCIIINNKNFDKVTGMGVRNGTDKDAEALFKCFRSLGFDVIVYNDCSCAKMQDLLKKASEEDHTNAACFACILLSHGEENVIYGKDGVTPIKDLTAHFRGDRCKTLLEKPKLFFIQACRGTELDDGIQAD
T1 sequence (P55210 207-303 limits assumed): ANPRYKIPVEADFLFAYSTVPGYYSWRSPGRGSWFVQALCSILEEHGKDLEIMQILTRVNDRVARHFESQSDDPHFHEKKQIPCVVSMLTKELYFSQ
The experiment in a line: Fluorimetric in vitro caspase inhibition assay (7-AMC), caspase 7. As to conditions: recombinant human caspase 7, 10 μM Ac-DEVD-AMC. How it is done: (§1) Recombinant human caspases-1, -3, -6, -7, and -8 and their peptide-specific substrates were purchased from Biomol International, UK Inhibition of the recombinant caspases by non-radioactive isatins was assessed using a fluorometric assay that measures the accumulation of a fluorogenic product, 7-amino-4-methylcoumarin (7-AMC). All assays were performed in 96-well plates at a volume of 200 μl per well. The assays were performed at 37° C. in an appropriate reaction buffer as described below for each caspase. For caspase 1, the buffer comprised of 0.1% CHAPS, 100 mM NaCl, 5 mM 2-mercaptoethanol, 100 mM HEPES (pH 7.4), 2 mM EDTA, 10% sucrose, and 10 μM of the peptide substrate Ac-YVAD-AMC. For caspase 3: 20 mM HEPES (pH 7.4), 10% sucrose, 100 mM NaCl, 0.1% CHAPS, 2 m, mM EDTA, and 10 μM Ac-DEVD-AMC. For caspase 6: 20 mM HEPES (pH 7.4), 10% sucrose, 100 mM NaCl, 0.1% CHAPS, 2 mM EDTA, and 10 μM Ac-VEID-AMC. For caspase 7: 20 mM HEPES (pH 7.4), 10% sucrose, 5 mM 2-mercaptoethanol, 100 mM NaCl, 0.1% CHAPS, 2 mM EDTA, 10 μM Ac-DEVD-AMC. For caspase 8: 20 mM HEPES (pH 7.4), 10% sucrose, 100 mM NaCl, 0.1% CHAPS, 2 mM EDTA, and 10 μM Ac-IETD-AMC. The Buffers contained non-radioactive isatins in DMSO at a final concentration of 500, 50, 5 μM; 500, 50, 5 nM; 500, 50, 5 pM; the final concentration of DMSO in all wells was 5% of the total volume. Recombinant caspases were used at 0.5 units per assay (˜500 pmol substrate converted per h). All reagents except the peptide substrate were pre-incubated for 10 min. The peptide substrate (final concentration 10 μM) was then added and the plate was incubated for a further 30 min; 30 min was selected after initial linearity study where reaction was assessed after 10, 30, 60 or 90 min. The 30 min time point was selected. Respective control wells contained all reaction components without enzyme. The amount of 7-AMC produced was measured on a fluorescence microplate reader (Victor2; Perkin-Elmer Life sciences) at excitation and emission wavelengths of 355 nm and 460 nm, respectively. The concentration of isatin that inhibits the caspase activity by 50% (EC50) was estimated by non-linear regression analysis using GraphPad Prism (Version 4.0 for Windows, GraphPad Software, San Diego Calif. USA). All the isatins were analyzed in duplicate; the assays were repeated once. Known compounds 13-16 were included as reference compounds.
(§2) The data are the average for two runs, each of which was duplicated, at nine concentrations ranging from 5 pM to 500 μM; the drug concentration required to inhibit each enzyme by 50% (EC50) was obtained from nonlinear regression analysis of the inhibition profiles.

Another test deals with T2, caspase 1 (Homo sapiens, UniProt P29466).
T2 construct: purchased Biomol International, UK
T2 sequence (P29466 120-297 limits assumed): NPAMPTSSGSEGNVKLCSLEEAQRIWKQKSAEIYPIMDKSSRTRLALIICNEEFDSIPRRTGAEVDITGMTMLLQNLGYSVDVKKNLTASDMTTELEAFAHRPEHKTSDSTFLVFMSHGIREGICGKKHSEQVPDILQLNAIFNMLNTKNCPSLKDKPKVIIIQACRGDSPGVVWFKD
T2 sequence (P29466 317-404 limits assumed): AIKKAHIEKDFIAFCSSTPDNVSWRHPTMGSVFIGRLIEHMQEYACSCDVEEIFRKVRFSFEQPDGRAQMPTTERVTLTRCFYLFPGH
The experiment in a line: Fluorimetric in vitro caspase inhibition assay (7-AMC), caspase 1. As to conditions: recombinant human caspase 1, 10 μM Ac-YVAD-AMC; read-out: Caspase EC50 (nM), 1/6/8: caspase 1. How it is done:
as §1, §2

Another test concerns the target T3, caspase 6 (Homo sapiens, UniProt P55212).
T3 construct: purchased Biomol International, UK
T3 sequence (P55212 24-179 limits assumed): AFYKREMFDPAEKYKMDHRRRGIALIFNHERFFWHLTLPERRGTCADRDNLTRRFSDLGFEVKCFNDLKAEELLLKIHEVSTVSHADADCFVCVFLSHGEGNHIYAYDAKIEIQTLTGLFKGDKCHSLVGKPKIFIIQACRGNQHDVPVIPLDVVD
T3 sequence (P55212 194-293 limits assumed): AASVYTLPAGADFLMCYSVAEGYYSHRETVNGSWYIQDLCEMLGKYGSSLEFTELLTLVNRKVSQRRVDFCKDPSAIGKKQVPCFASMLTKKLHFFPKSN
The experiment in a line: Fluorimetric in vitro caspase inhibition assay (7-AMC), caspase 6. Conditions: recombinant human caspase 6, 10 μM Ac-VEID-AMC; read-out: Caspase EC50 (nM), 1/6/8: caspase 6. How it is done:
as §1, §2

For another test, the target named is T4, caspase 8 (Homo sapiens, UniProt Q14790).
T4 construct: purchased Biomol International, UK
T4 sequence (Q14790 217-374 limits assumed): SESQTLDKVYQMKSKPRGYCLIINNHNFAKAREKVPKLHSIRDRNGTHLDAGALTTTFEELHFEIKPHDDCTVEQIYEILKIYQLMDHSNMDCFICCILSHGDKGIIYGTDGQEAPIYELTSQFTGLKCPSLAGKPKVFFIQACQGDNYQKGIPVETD
T4 sequence (Q14790 385-479 limits assumed): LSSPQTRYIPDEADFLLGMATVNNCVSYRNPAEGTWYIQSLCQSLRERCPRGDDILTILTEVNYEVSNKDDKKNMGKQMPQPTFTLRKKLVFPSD
In words: Fluorimetric in vitro caspase inhibition assay (7-AMC), caspase 8. As to conditions: recombinant human caspase 8, 10 μM Ac-IETD-AMC; read-out: Caspase EC50 (nM), 1/6/8: caspase 8. How it is done:
as §1, §2

For `O=C1C(=O)N(Cc2ccc(F)cc2)c2ccc(S(=O)(=O)N3CCC[C@H]3COc3cccc(F)c3)cc21` [Compound 1, (S)-1-(4-Fluorobenzyl)-5-(2-(3-fluorophenoxymethyl)-pyrrolidine-1-sulfonyl)isatin], the EC50 at caspase 7 is 13.5 nM; on caspase 1, more than 5000 nM; at caspase 6, more than 5000 nM; on caspase 8 it was more than 5000 nM.
With `O=C1C(=O)N(Cc2ccc(F)cc2)c2ccc(S(=O)(=O)N3CCC[C@H]3COc3ccc(F)cc3F)cc21` [Compound 2, (S)-1-(4-Fluorobenzyl)-5-(2-(2,4-difluorophenoxymethyl)-pyrrolidine-1-sulfonyl)isatin], the EC50 on caspase 7 is 13 nM; on caspase 1, more than 5000 nM; on caspase 6, more than 5000 nM; at caspase 8, more than 5000 nM.
Turning to `O=C1C(=O)N(Cc2ccc(F)cc2)c2ccc(S(=O)(=O)N3CCC[C@H]3COC3CCOCC3)cc21` [Compound 4, (S)-1-(4-Fluorobenzyl)-5-(2-(tetrahydro-2H-pyran-4-yloxymethyl)-pyrrolidine-1-sulfonyl)isatin], the EC50 at caspase 7 was 14.4 nM; on caspase 1 it was more than 5000 nM; at caspase 6, more than 5000 nM; at caspase 8, more than 5000 nM.
As to `O=C1C(=O)N(Cc2ccc(F)cc2)c2ccc(S(=O)(=O)N3CCC[C@H]3COc3ccncn3)cc21` [Compound 5, (S)-1-(4-Fluorobenzyl)-5-(2-(pyrimidin-4-yloxymethyl)-pyrrolidine-1-sulfonyl)isatin], the EC50 was 2.3 nM on caspase 7, more than 5000 nM on caspase 1, more than 5000 nM on caspase 6 and more than 5000 nM on caspase 8.
As for `O=C1C(=O)N(Cc2cn(CCF)nn2)c2ccc(S(=O)(=O)N3CCC[C@H]3COc3ccccc3)cc21` [Compound 10, (S)-1-((1-(2-Fluoroethyl)-1H-[1,2,3]-triazol-4-yl)methyl)-5-(2-phenoxymethyl-pyrrolidine-1-sulfonyl)isatin], the EC50 is 28.2 nM at caspase 7, more than 5000 nM at caspase 1, more than 5000 nM at caspase 6 and more than 5000 nM on caspase 8.
In the case of `O=C1C(=O)N(Cc2cn(CCF)nn2)c2ccc(S(=O)(=O)N3CCC[C@H]3COc3ccc(F)cc3F)cc21` [Compound 11, (S)-1-((1-(2-Fluoroethyl)-1H-[1,2,3]-triazol-4-yl)methyl)-5-(2(2,4-difluorophenoxymethyl)-pyrrolidine-1-sulfonyl)isatin], the EC50 on caspase 7 is 2.2 nM; at caspase 1, more than 5000 nM; at caspase 6, more than 5000 nM; at caspase 8, more than 5000 nM.
Turning to `O=C1C(=O)N(Cc2ccccc2)c2ccc(S(=O)(=O)N3CCC[C@H]3COc3ccccc3)cc21` [Compound 13, (S)-1-benzyl-5-(2-phenoxymethyl-pyrrolidine-1-sulfonyl)isatin, reference compound], the EC50 on caspase 7 is 29.4 nM; at caspase 1, more than 5000 nM; on caspase 6, more than 5000 nM; at caspase 8, more than 5000 nM.
Take `O=C1C(=O)N(Cc2ccc(I)cc2)c2ccc(S(=O)(=O)N3CCC[C@H]3COc3ccccc3)cc21` [Compound 14, (S)-1-(4-iodobenzyl)-5-(2-phenoxymethyl-pyrrolidine-1-sulfonyl)isatin, reference compound]: the EC50 was 25.3 nM at caspase 7, more than 5000 nM on caspase 1, more than 5000 nM on caspase 6 and more than 5000 nM at caspase 8.
As to `O=C1C(=O)N(Cc2ccc(F)cc2)c2ccc(S(=O)(=O)N3CCC[C@H]3COc3ccccc3)cc21` [Compound 15, (S)-1-(4-fluorobenzyl)-5-(2-phenoxymethyl-pyrrolidine-1-sulfonyl)isatin, reference compound], the EC50 is 19.8 nM at caspase 7, more than 5000 nM at caspase 1, more than 5000 nM on caspase 6 and more than 5000 nM at caspase 8.
As to `O=C1C(=O)N(Cc2ccc(F)cc2)c2ccc(S(=O)(=O)N3CCCC3)cc21` [Compound 16, 1-(4-Fluorobenzyl)-5-(pyrrolidine-1-sulfonyl)isatin, reference compound], the EC50 was 78.6 nM on caspase 7, more than 5000 nM at caspase 1, more than 5000 nM at caspase 6 and more than 5000 nM on caspase 8.
`O=C1C(=O)N(Cc2ccc(F)cc2)c2ccc(S(=O)(=O)N3CCC[C@H]3COc3ccc(F)cc3)cc21` [Compound 22, (S)-1-(4-Fluorobenzyl)-5-(2-(4-fluorophenoxymethyl)-pyrrolidine-1-sulfonyl)isatin]: the EC50 on caspase 7 is 8 nM; at caspase 1, more than 5000 nM; at caspase 6 it was more than 5000 nM; at caspase 8, more than 5000 nM.
Consider `C#CCN1C(=O)C(=O)c2cc(S(=O)(=O)N3CCC[C@H]3COc3ccc(F)cc3F)ccc21` [Compound 25, (S)-1-(2-Propynyl)-5-(2-(2,4-difluorophenoxymethyl)-pyrrolidine-1-sulfonyl)isatin], for which the EC50 at caspase 7 is 60.4 nM; on caspase 1, more than 5000 nM; on caspase 6, more than 5000 nM; on caspase 8, more than 5000 nM.

Values taken from patent US8961930B2, “Isatin derivatives for use as in vivo imaging agents” (Imperial Innovations Limited, priority 2008, dated 2015).
